{"source": "patent US10098975B2", "about": "“Labeled pkg-1-alpha-binding compounds and their use in imaging and quantifying pain” (THE TRUSTEES OF COLUMBIA UNIVERSITY IN THE CITY OF NEW YORK, priority 2013, dated 2018)", "key": {"PKG": {"biological_target": "T1, PKG (Homo sapiens, UniProt Q13976)", "T1 sequence (Q13976 1-671)": "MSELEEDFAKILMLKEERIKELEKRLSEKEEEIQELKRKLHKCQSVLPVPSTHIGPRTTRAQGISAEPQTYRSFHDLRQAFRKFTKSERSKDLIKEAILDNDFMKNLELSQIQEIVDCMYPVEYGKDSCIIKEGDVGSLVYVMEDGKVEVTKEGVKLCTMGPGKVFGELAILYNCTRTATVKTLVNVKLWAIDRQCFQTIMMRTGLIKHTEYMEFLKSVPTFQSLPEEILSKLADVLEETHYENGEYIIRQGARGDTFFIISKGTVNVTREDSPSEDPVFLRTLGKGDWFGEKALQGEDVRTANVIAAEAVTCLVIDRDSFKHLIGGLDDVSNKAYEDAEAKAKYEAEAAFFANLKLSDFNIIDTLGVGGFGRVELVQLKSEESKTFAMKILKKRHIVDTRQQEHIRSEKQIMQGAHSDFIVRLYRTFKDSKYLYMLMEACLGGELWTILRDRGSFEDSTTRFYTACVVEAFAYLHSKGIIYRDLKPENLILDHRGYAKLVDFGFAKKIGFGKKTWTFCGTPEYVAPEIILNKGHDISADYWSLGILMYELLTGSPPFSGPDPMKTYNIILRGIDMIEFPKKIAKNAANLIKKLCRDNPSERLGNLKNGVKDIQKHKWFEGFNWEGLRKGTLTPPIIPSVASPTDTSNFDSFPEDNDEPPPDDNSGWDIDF", "experiment": "IC50 of NOP46 for PKG", "assay_type": "biochemical"}, "[1]": {"experiment": "Microsome preparations (metabolism)", "assay_type": "in vitro ADME"}, "models of chronic pain": {"test_system": "models of chronic pain", "experiment": "Rat models of chronic pain (mechanical allodynia, thermal hyperalgesia)", "assay_type": "in vivo", "details": "injected into rats, FIG. 6", "source_text": "(§1) Evaluation of neuroma pain was made possible with the advent of a novel protocol in rats whereby the end of a transected tibial nerve is transposed and then anchored just beneath the skin of the ankle. This allows the allodynia from the neuroma to be evaluated by systematically applying pressure to the overlying skin and observing whether the rat raises the leg."}, "Protein Kinase A (PKA)": {"biological_target": "Protein Kinase A (PKA) (Homo sapiens, UniProt P17612)", "experiment": "IC50 of NOP46 for Protein Kinase A", "assay_type": "biochemical"}, "[2]": {"experiment": "Clearance from circulation after intravenous injection", "assay_type": "in vivo", "details": "following intravenous injection"}, "[3]": {"experiment": "Stability in blood in vitro", "assay_type": "in vitro ADME"}, "PKG1alpha(h)": {"biological_target": "T2, PKG1alpha(h) (Homo sapiens, UniProt Q13976)", "T2 sequence (Q13976 1-671)": "T1 sequence (Q13976 1-671)", "experiment": "Kinase panel (287 kinases, optimal ATP): PKG1alpha(h)", "assay_type": "biochemical", "details": "assayed in 287 kinases at their optimal ATP concentrations", "experimental": "Its kinase inhibiting activity was assayed in 287 kinases at their optimal ATP concentrations. Members of all the kinome families were represented."}, "neuroma pain": {"test_system": "neuroma pain", "experiment": "Tibial neuroma transposition model of neuroma pain in rats", "assay_type": "in vivo", "details": "transected tibial nerve transposed beneath ankle skin", "source_text": "as §1"}, "[4]": {"experiment": "Distribution to dorsal root ganglion and CNS after injection", "assay_type": "in vivo"}, "[5]": {"experiment": "Tissue distribution studies", "assay_type": "in vivo", "details": "initial levels"}}, "data": [{"smiles": "CCCOc1ccc(OC)c(F)c1C(=O)c1ccc(C(=O)N[C@@H]2CNC[C@H]2NC(=O)c2ccc3[nH]ncc3c2)cc1", "note": "[NOP46, N-((3R,4R)-4-(4-(2-fluoro-3-methoxy-6-propoxybenzoyl)benzamido)pyrrolidin-3-yl)-1H-indazole-5-carboxamide]", "values": [{"measurement": "IC50", "setting": "PKG", "result": 7.5, "unit": "nM"}, {"measurement": "Kinetic analysis: mode of inhibition", "setting": "PKG; with respect to the ATP site", "result": "non-competitive inhibitor of the ATP site"}, {"measurement": "Metabolic degradation pathway", "setting": "[1]", "result": "degraded by carbonyl reduction and depropylation"}, {"measurement": "Mechanical allodynia", "setting": "models of chronic pain", "result": "alleviated mechanical allodynia"}, {"measurement": "Thermal hyperalgesia", "setting": "models of chronic pain", "result": "alleviated"}, {"measurement": "IC50", "setting": "Protein Kinase A (PKA)", "result": 2000, "unit": "nM"}, {"measurement": "Clearance from the circulation", "setting": "[2]", "result": "rapidly cleared from the circulation"}, {"measurement": "Stability in blood", "setting": "[3]", "result": "stable in blood in vitro"}, {"measurement": "Selectivity of kinase inhibition", "setting": "PKG1alpha(h)", "result": "selectively inhibits activated PKG1alpha"}, {"measurement": "Neuroma pain", "setting": "neuroma pain", "result": "alleviates neuroma pain"}, {"measurement": "Entry into the central nervous system", "setting": "[4]", "result": "does not enter the central nervous system"}, {"measurement": "Time to reach the DRG", "setting": "[4]", "result": "≤ 30", "unit": "min"}, {"measurement": "Stability within the ganglion", "setting": "[4]; dorsal root ganglion", "result": "at least 24 h"}, {"measurement": "Tissue level in the liver", "setting": "[5]", "result": "high initial levels of NOP46 in the liver"}]}]}
